Experimental data taken from US20050267072A1, “Pharmaceutical compositions containing dually acting inhibitors of neutral endopeptidase for the treatment of sexual dysfunction” (Solvay Pharmaceuticals GmbH, priority 2004, published 2005).
Like-named read-outs stand apart in the source and are kept apart here.

How the values were obtained:
[1] = target: T1, hSEP (His6-tagged hSEP ectodomain) (Homo sapiens, UniProt Q495T6); test: Inhibition of enzymatic breakdown of CNP and VIP by hSEP (in vitro enzymatic assay, HPLC); type: biochemical; settings: 15 min preincubation, 60 min at 37° C.
T1 construct: His6-tagged hSEP ectodomain; His6; purchased Innogenetics, Ghent, Belgium
T1 sequence (Q495T6 49-779 limits assumed): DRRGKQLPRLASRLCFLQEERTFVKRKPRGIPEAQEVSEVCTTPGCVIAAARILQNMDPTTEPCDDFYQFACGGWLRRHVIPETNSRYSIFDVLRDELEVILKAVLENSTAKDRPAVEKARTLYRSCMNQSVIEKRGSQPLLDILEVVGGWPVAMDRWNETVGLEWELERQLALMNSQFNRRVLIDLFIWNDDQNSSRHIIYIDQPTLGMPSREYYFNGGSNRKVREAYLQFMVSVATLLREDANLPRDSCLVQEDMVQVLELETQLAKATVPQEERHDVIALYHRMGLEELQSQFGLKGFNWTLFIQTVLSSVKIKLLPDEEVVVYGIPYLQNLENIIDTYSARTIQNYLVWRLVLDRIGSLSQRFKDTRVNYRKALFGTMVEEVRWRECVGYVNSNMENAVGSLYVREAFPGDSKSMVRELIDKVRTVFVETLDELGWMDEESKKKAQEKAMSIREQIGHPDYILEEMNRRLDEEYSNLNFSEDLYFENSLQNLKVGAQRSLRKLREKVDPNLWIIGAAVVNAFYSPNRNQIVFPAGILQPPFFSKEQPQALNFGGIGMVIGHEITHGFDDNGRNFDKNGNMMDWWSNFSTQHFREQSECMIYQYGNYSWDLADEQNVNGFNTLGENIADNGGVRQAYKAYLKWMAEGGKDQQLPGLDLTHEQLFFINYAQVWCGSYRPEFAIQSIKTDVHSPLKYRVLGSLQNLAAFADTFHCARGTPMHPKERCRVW
Protocol: (§1) 1. Inhibition of Enzymatic Breakdown of CNP and VIP by the Test Compounds
(§2) The inhibition of the enzymatic breakdown of CNP and VIP by the test compounds of Formula I according to the invention was measured in an enzymatic in vitro assay according to the following protocol:
(§3) • a) hSEP (sol hu)(his)6; or: His6-tagged hSEP ectodomain. • stock solution: 53 μg/ml in 20 mM HEPES pH 7.2, 5% glycerol, 0.005% Tween20, 100 mM NaCl, purity>99% • working solution: stock solution diluted with assay buffer to 5 μg/ml • Supplier: Innogenetics, Ghent, Belgium. Preparation and purification of the protein were performed as described in WO 02/094176. • b) NEP (prepared from pig kidney cortex) • stock solution: 120 μg/ml in 20 mM bisTris, purity>95% • working solution: stock solution diluted with assay buffer to 5 μg/ml • Supplier: Dr. Philippe Crine, Univ. of Montreal, Canada Substrates: • a) VIP • b) CNP (32-53) • stock solution: 100 μM in assay buffer • Supplier: Bachem, Weil am Rhein, Germany
(§4) Assay buffer: 100 mM Tris pH 7.0, 250 mM NaCl
(§5) All test compounds were dissolved in DMSO at 10 mM and further diluted with assay buffer.
(§6) 70 μl of assay buffer, 10 μl of enzyme working solution (NEP or hSEP) and 10 μl of a test compound solution were mixed in an Eppendorf vial and preincubated at 37° C. for 15 minutes. Then, 10 μl of peptide stock solution (VIP or CNP) was added and the reaction mixture was incubated at 37° C. for 60 min. to allow enzymatic hydrolysis. The enzymatic reaction was subsequently terminated by heating to 95° C. for 5 min. After centrifugation (Heraeus Biofuge B, 3 min) the supernatant was subjected to HPLC.
(§7) For separating the remaining substrate from the cleavage products, a reversed phase HPLC technique with a CC 125/4 Nucleosil 300/5 C18 RP column and a CC 8/4 Nucleosil 100/5 C18 precolumn (Macherey-Nagel, Duren, Germany) was used. 60 μl of the reaction samples were injected into the HPLC and the column was eluted at a flow rate of 1 ml/min with the following gradient: […]
(§8) All peptides were detected by absorbance at 214 nm (UV spectroscopy).
(§9) Basis of the calculation of % inhibition is the peak area of the undegraded peptide (VIP or CNP) for an inhibitor containing sample X in comparison to samples containing only peptide (blank) or peptide and enzyme without inhibitor (control) according to the following equation: % inhib=100*(X−control)/(blank−control)
(§10) All samples were run in duplicate and mean values were used. A solvent control (0.1% DMSO) was added to each assay run.

human corpus cavernosum = test: Big-ET-induced contraction of human cavernosal strips in vitro; type: cell-based; settings: compounds at 10 μM, 20 min incubation; big-ET-1 10^−8 M; mean of n corpus cavernosum samples
Protocol: 2. Influence of Test Compounds on Big-ET-Induced Contraction of Human Cavernosal Strips In Vitro
Human erectile tissues were obtained from the corpus cavernosum of 9 patients undergoing surgery for implantation of penile prosthesis as treatment of erectile dysfunction or penile congenital curvature. After surgery, the tissue samples were transported and stored at 4° C. in RPMI-1640 medium containing HEPES (23.8 mM), penicillin (100 IU/ml) and streptomycin (0.1 mg/ml) until use (within 24 hours). Eight sections of 4×2×2 mm were excised from the corpus cavernosum of each donor for each experiment. Cavernosal strips were suspended in 5 ml organ chambers filled with Krebs-HEPES buffer. Organ chambers were maintained at 37° C. and continuously bubbled with 95% O2 and 5% CO2 to maintain a pH at 7.4. The cavernosal strips were connected to force transducers for isometric tension recording (Pioden controls Ltd, UK), and an initial tension of 1 g was applied. Following amplification, the tension changes were digitalized via a Mac Lab™/8 using Chart software (AD Instruments Ltd). The tissue preparation were allowed to equilibrate for 90 minutes, while being washed periodically (every 15 minutes) with fresh Krebs-HEPES buffer. When a stable resting tension was attained, the strips were set to at least 500 mg of basal tension. Following the equilibration period, the erectile tissues were primed with KCl 80 mM during 10 min. Once this priming period was achieved, the strips were washed by fresh Krebs-HEPES solution and allowed to re-equilibrate for 30 minutes at 500 mg of tension.
Once the strips were stabilized after the priming period, they were incubated with one of the following compounds (all at 10 μM, unless indicated otherwise) during 20 min: compound of Formula IV, compound of Formula V, SM-19712 (a selective and potent endothelin converting enzyme-1 inhibitor), DL-thiorphan (a selective and potent NEP inhibitor), and the combination of SM-19712, 10 μM and DL-thiorphan, and the common vehicle (phosphate buffer).
The strips were then exposed to the half-maximally effective concentration of big-ET-1 (10^−8 M) determined in the preliminary experiments until a stable response was obtained.
Contractile responses were expressed as absolute change in maximal developed tension (in mg). To reduce the potential heterogeneity of responses between strips, the contraction to big-ET-1 was normalized by the contractile responses to KCl 80 mM obtained during the priming period.
The results are from duplicate or triplicate determinations from a single corpus cavernosum sample were averaged and values are expressed as percentage of the contractile responses induced by 80 mM of KCl, as mean […]SEM, for n corpus cavernosum samples.

[2] = target: T2, NEP (prepared from pig kidney cortex) (Sus scrofa, UniProt A0A4X1SQE6); test: Inhibition of enzymatic breakdown of CNP and VIP by NEP (in vitro enzymatic assay, HPLC); type: biochemical; settings: 15 min preincubation, 60 min at 37° C.
Protocol: as §1, §2, §3, §4, §5, §6, §7, §8, §9, §10

[3] = target: T2, NEP (prepared from pig kidney cortex); test: Activity assay: breakdown of VIP and CNP by NEP; type: biochemical; settings: 120 min at 37° C., no inhibitor
Protocol: as §3, §4
(§11) 80 μl of assay buffer, 10 μl of enzyme working solution (NEP or hSEP) and 10 μl of peptide stock solution (VIP or CNP) were mixed in an Eppendorf vial and incubated for 120 min. at 37° C. The enzymatic reaction was subsequently terminated by heating to 95° C. for 5 min. […]
as §8
(§12) The percentage (=%) of hydrolysis was calculated on the basis of the peak area of the undegraded peptide for an enzyme containing sample Y in correlation to a sample containing the same concentration of peptide without enzyme (blank) by the following equation: % hydrolysis=100*(blank−Y) […]

[4] = target: T1, hSEP (His6-tagged hSEP ectodomain); test: Activity assay: breakdown of VIP and CNP by hSEP; type: biochemical; settings: 120 min at 37° C., no inhibitor
Protocol: as §3, §4, §11, §8, §12

patients with ED = settings: intracavernosal injection, combined with the α-adrenoceptor antagonist phentolamine; cited from earlier work
[5] = substrate CNP (32-53), read-out: inhibition of breakdown of CNP by hSEP IC50
[6] = substrate VIP, read-out: inhibition of breakdown of VIP by hSEP IC50
[7] = inhibition of breakdown of CNP by NEP IC50, substrate CNP (32-53)
[8] = inhibition of breakdown of VIP by NEP IC50, substrate VIP
[9] = substrate CNP (32-53), read-out: inhibition of breakdown of CNP by NEP IC50
[10] = substrate VIP, read-out: inhibition of breakdown of VIP by NEP IC50

T2 sequence (A0A4X1SQE6 entry or part of it): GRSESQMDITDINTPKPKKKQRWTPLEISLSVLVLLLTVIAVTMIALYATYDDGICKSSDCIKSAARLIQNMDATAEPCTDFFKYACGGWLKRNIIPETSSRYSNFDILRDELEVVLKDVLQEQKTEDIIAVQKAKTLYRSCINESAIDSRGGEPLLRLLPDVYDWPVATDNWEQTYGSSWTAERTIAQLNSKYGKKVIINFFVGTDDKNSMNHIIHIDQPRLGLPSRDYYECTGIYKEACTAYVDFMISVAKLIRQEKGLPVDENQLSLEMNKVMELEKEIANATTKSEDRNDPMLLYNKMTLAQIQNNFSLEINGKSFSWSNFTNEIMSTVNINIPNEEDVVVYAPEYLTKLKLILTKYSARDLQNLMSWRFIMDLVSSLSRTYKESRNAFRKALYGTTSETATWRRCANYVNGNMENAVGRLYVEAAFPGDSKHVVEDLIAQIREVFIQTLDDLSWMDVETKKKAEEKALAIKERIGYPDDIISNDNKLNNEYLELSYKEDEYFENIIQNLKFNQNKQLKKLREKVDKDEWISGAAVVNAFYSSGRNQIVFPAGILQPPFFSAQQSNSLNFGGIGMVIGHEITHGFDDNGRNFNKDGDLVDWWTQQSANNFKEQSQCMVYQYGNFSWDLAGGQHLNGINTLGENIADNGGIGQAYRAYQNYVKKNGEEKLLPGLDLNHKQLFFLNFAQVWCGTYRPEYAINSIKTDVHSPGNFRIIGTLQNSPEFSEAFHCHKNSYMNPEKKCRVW

## O=C(O)CNC(=O)C(CS)Cc1ccccc1 (racemic) [thiorphan, reference compound]
[1]; [5]
  IC50: > 1000 nM
[1]; [6]
  IC50: > 1000 nM
Human corpus cavernosum
  Maximal big-ET-induced contraction: 91.57 percentage of the contractile responses induced by 80 mM of KCl
[2]; [7]
  IC50: 8.4 nM
[2]; [8]
  IC50: 6.4 nM

## O=C(O)CN1C(=O)C(NC(=O)C2(CC(CCc3ccccc3)C(=O)O)CCCC2)CCc2ccccc21 (stereo not shown) [Cpd. of Formula IV, 2-[1-(1-carboxymethyl-2-oxo-2,3,4,5-tetrahydro-1H-benzo[b]azepin-3-ylcarbamoyl)-cyclopentylmethyl]-4-phenyl-butyric acid]
Human corpus cavernosum
  Maximal big-ET-induced contraction: 32.80 percentage of the contractile responses induced by 80 mM of KCl

## Cc1nn(-c2ccccc2)c(NC(=O)NS(=O)(=O)c2ccc(Cl)cc2)c1C#N [SM-19712, reference compound]
Human corpus cavernosum
  Maximal big-ET-induced contraction: 85.10 percentage of the contractile responses induced by 80 mM of KCl

## CCOP(=O)(CC1(C(=O)N[C@H]2CCc3ccccc3N(CC(=O)OC(C)(C)C)C2=O)CCCC1)OCc1ccccc1 (stereo partly drawn) [compound 2, (3S)-(3-{[1-(Benzyloxy-ethoxy-phosphorylmethyl)-cyclopentanecarbonyl]-amino}-2-oxo-2,3,4,5-tetrahydro-benzo[b]azepin-1-yl)-acetic acid tert-butyl ester]
[1]; [5]
  IC50: 2.8 nM
[1]; [6]
  IC50: 4 nM
[2]; [7]
  IC50: 2.3 nM
[2]; [8]
  IC50: 1.6 nM

## CCOC(=O)C(CCc1ccccc1)CC1(C(=O)NC2CCc3ccccc3N(CC(=O)O)C2=O)CCCC1 (stereo not shown) [compound of Formula II, 2-[1-(1-carboxymethyl-2-oxo-2,3,4,5-tetrahydro-1H-benzo[b]azepin-3-ylcarbamoyl)-cyclopentylmethyl]-4-phenyl-butyric acid ethyl ester]
[1]; [5]
  IC50: 0.7 nM
[1]; [6]
  IC50: 3.5 nM
[2]; [9]
  IC50: 7.5 nM
[2]; [10]
  IC50: 3.3 nM

## CCOC(=O)[C@H](CCc1cccc2ccccc12)CC1(C(=O)N[C@H]2CCc3ccccc3N(CC(=O)O)C2=O)CCCC1 [compound of Formula III, {(3S)-3-[({1-[(2R)-2-(ethoxycarbonyl)-4-(1-naphthyl)butyl]cyclopentyl}carbonyl)amino]-2-oxo-2,3,4,5-tetrahydro-1H-1-benzazepin-1-yl}acetic acid]
[1]; [5]
  IC50: 2.2 nM
[1]; [6]
  IC50: 2.9 nM
[2]; [9]
  IC50: 6.6 nM
[2]; [10]
  IC50: 4.2 nM

## O=C(O)CN1C(=O)C(NC(=O)C2(CC(CCc3cccc4ccccc34)C(=O)O)CCCC2)CCc2ccccc21 (stereo not shown) [cpd. of Formula V, 2-[1-(1-carboxymethyl-2-oxo-2,3,4,5-tetrahydro-1H-benzo[b]azepin-3-ylcarbamoyl)-cyclopentylmethyl]-4-naphthalen-1-yl-butyric acid]
Human corpus cavernosum
  Maximal big-ET-induced contraction: 49.60 percentage of the contractile responses induced by 80 mM of KCl

## CNP: C-type natriuretic peptide, substrate CNP (32-53), supplier Bachem
[3]
  degradation at t = 2 h by NEP: 39%
[4]
  degradation at t = 2 h by hSEP: 46%

## VIP: vasoactive intestinal peptide, substrate, supplier Bachem
Patients with ED
  response rate (erections sufficient for sexual intercourse): 67%
[3]
  degradation at t = 2 h by NEP: 28%
[4]
  degradation at t = 2 h by hSEP: 36%
